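Method: 48-hour compound exposure of cells in 96-well plates, five concentrations, linear interpolation of endpoints. TGI: concentration producing complete growth inhibition.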
Columns and labels:
Assay in all cases: NCI tumour cell line growth inhibition, 48 h
A498 renal = tested on: A498 renal
A549 NSCLC = tested on: A549 NSCLC
CAKI-1 renal = tested on: CAKI-1 renal
CCRF-CEM leukemia = tested on: CCRF-CEM leukemia
COLO 205 colon = tested on: COLO 205 colon
DLD-1 colon = tested on: DLD-1 colon
DMS 114 small cell lung = tested on: DMS 114 small cell lung
DMS 273 small cell lung = tested on: DMS 273 small cell lung
EKVX NSCLC = tested on: EKVX NSCLC
HCC-2998 colon = tested on: HCC-2998 colon
HCT-116 colon = tested on: HCT-116 colon
HCT-15 colon = tested on: HCT-15 colon
HL-60(TB) leukemia = tested on: HL-60(TB) leukemia
HOP-18 NSCLC = tested on: HOP-18 NSCLC
HOP-62 NSCLC = tested on: HOP-62 NSCLC
HOP-92 NSCLC = tested on: HOP-92 NSCLC
HT29 colon = tested on: HT29 colon
IGROV1 ovarian = tested on: IGROV1 ovarian
K-562 leukemia = tested on: K-562 leukemia
KM12 colon = tested on: KM12 colon
KM20L2 colon = tested on: KM20L2 colon
LOX IMVI melanoma = tested on: LOX IMVI melanoma
M19-MEL melanoma = tested on: M19-MEL melanoma
MALME-3M melanoma = tested on: MALME-3M melanoma
MCF7 breast = tested on: MCF7 breast
MOLT-4 leukemia = tested on: MOLT-4 leukemia
NCI-H226 lung = tested on: NCI-H226 lung
NCI-H23 lung = tested on: NCI-H23 lung
NCI-H460 lung = tested on: NCI-H460 lung
NCI-H522 lung = tested on: NCI-H522 lung
NCI/ADR-RES ovarian = tested on: NCI/ADR-RES ovarian
OVCAR-3 ovarian = tested on: OVCAR-3 ovarian
OVCAR-4 ovarian = tested on: OVCAR-4 ovarian
OVCAR-5 ovarian = tested on: OVCAR-5 ovarian
OVCAR-8 ovarian = tested on: OVCAR-8 ovarian
P388 leukemia = tested on: P388 leukemia
P388/ADR leukemia = tested on: P388/ADR leukemia
RPMI-8226 leukemia = tested on: RPMI-8226 leukemia
RXF 393 renal = tested on: RXF 393 renal
SF-268 CNS = tested on: SF-268 CNS
SF-295 CNS = tested on: SF-295 CNS
SF-539 CNS = tested on: SF-539 CNS
SK-MEL-2 melanoma = tested on: SK-MEL-2 melanoma
SK-MEL-28 melanoma = tested on: SK-MEL-28 melanoma
SK-MEL-5 melanoma = tested on: SK-MEL-5 melanoma
SK-OV-3 ovarian = tested on: SK-OV-3 ovarian
SN12C renal = tested on: SN12C renal
SN12K1 renal = tested on: SN12K1 renal
SNB-19 CNS = tested on: SNB-19 CNS
SNB-75 CNS = tested on: SNB-75 CNS
SNB-78 CNS = tested on: SNB-78 CNS
SW-620 colon = tested on: SW-620 colon
U251 CNS = tested on: U251 CNS
UACC-257 melanoma = tested on: UACC-257 melanoma
UACC-62 melanoma = tested on: UACC-62 melanoma
UO-31 renal = tested on: UO-31 renal
XF 498 CNS = tested on: XF 498 CNS
786-0 renal = tested on: 786-0 renal
ACHN renal = tested on: ACHN renal
BT-549 breast = tested on: BT-549 breast
DU-145 prostate = tested on: DU-145 prostate
HS 578T breast = tested on: HS 578T breast
LXFL 529 NSCLC = tested on: LXFL 529 NSCLC
M14 melanoma = tested on: M14 melanoma
MDA-MB-231 breast = tested on: MDA-MB-231 breast
MDA-MB-435 = tested on: MDA-MB-435
MDA-N = tested on: MDA-N
PC-3 prostate = tested on: PC-3 prostate
RXF-631 renal = tested on: RXF-631 renal
SR leukemia = tested on: SR leukemia
T-47D breast = tested on: T-47D breast
TK-10 renal = tested on: TK-10 renal

## O=S1(=O)C(=C(c2ccccc2)c2ccccc2)S(=O)(=O)c2ccccc21
A498 renal
  TGI: > 100 µM
A549 NSCLC
  TGI: > 100 µM
CAKI-1 renal
  TGI: > 100 µM
CCRF-CEM leukemia
  TGI: > 100 µM
COLO 205 colon
  TGI: > 100 µM
DLD-1 colon
  TGI: > 100 µM
DMS 114 small cell lung
  TGI: > 100 µM
DMS 273 small cell lung
  TGI: > 100 µM
EKVX NSCLC
  TGI: > 100 µM
HCC-2998 colon
  TGI: > 100 µM
HCT-116 colon
  TGI: > 100 µM
HCT-15 colon
  TGI: > 100 µM
HL-60(TB) leukemia
  TGI: > 100 µM
HOP-18 NSCLC
  TGI: > 100 µM
HOP-62 NSCLC
  TGI: 46.8 µM
HOP-92 NSCLC
  TGI: 50.8 µM
HT29 colon
  TGI: > 100 µM
IGROV1 ovarian
  TGI: > 100 µM
K-562 leukemia
  TGI: > 100 µM
KM12 colon
  TGI: > 100 µM
KM20L2 colon
  TGI: > 100 µM
LOX IMVI melanoma
  TGI: > 100 µM
M19-MEL melanoma
  TGI: > 100 µM
MALME-3M melanoma
  TGI: > 100 µM
MCF7 breast
  TGI: > 100 µM
MOLT-4 leukemia
  TGI: > 100 µM
NCI-H226 lung
  TGI: > 100 µM
NCI-H23 lung
  TGI: > 100 µM
NCI-H460 lung
  TGI: > 100 µM
NCI-H522 lung
  TGI: > 100 µM
NCI/ADR-RES ovarian
  TGI: > 100 µM
OVCAR-3 ovarian
  TGI: > 100 µM
OVCAR-4 ovarian
  TGI: > 100 µM
OVCAR-5 ovarian
  TGI: > 100 µM
OVCAR-8 ovarian
  TGI: > 100 µM
P388 leukemia
  TGI: > 31.6 µM
P388/ADR leukemia
  TGI: > 100 µM
RPMI-8226 leukemia
  TGI: > 100 µM
RXF 393 renal
  TGI: > 100 µM
SF-268 CNS
  TGI: > 100 µM
SF-295 CNS
  TGI: > 66.4 µM
SF-539 CNS
  TGI: 73.3 µM
SK-MEL-2 melanoma
  TGI: > 100 µM
SK-MEL-28 melanoma
  TGI: > 100 µM
SK-MEL-5 melanoma
  TGI: > 100 µM
SK-OV-3 ovarian
  TGI: > 100 µM
SN12C renal
  TGI: > 100 µM
SN12K1 renal
  TGI: 65.1 µM
SNB-19 CNS
  TGI: > 100 µM
SNB-75 CNS
  TGI: 44.4 µM
SNB-78 CNS
  TGI: 99.7 µM
SW-620 colon
  TGI: > 100 µM
U251 CNS
  TGI: > 100 µM
UACC-257 melanoma
  TGI: > 100 µM
UACC-62 melanoma
  TGI: > 100 µM
UO-31 renal
  TGI: > 100 µM
XF 498 CNS
  TGI: 62.4 µM

## O=C(CC1(O)C(=O)Nc2c(Cl)cc(Cl)cc21)c1cccc([N+](=O)[O-])c1 (stereo not given)
786-0 renal
  TGI: > 59.9 µM
A498 renal
  TGI: 66.8 µM
A549 NSCLC
  TGI: 98.9 µM
ACHN renal
  TGI: > 54.6 µM
BT-549 breast
  TGI: > 100 µM
CAKI-1 renal
  TGI: > 93.2 µM
CCRF-CEM leukemia
  TGI: 48.2 µM
COLO 205 colon
  TGI: > 61.7 µM
DLD-1 colon
  TGI: > 100 µM
DMS 114 small cell lung
  TGI: 43.3 µM
DMS 273 small cell lung
  TGI: > 100 µM
DU-145 prostate
  TGI: > 100 µM
EKVX NSCLC
  TGI: > 100 µM
HCC-2998 colon
  TGI: > 70.4 µM
HCT-116 colon
  TGI: 59 µM
HCT-15 colon
  TGI: > 100 µM
HOP-18 NSCLC
  TGI: 98.6 µM
HOP-62 NSCLC
  TGI: 98.6 µM
HOP-92 NSCLC
  TGI: 80.9 µM
HS 578T breast
  TGI: 94.9 µM
HT29 colon
  TGI: > 100 µM
IGROV1 ovarian
  TGI: 55.8 µM
K-562 leukemia
  TGI: 70.2 µM
KM12 colon
  TGI: > 100 µM
KM20L2 colon
  TGI: > 100 µM
LOX IMVI melanoma
  TGI: 35.5 µM
LXFL 529 NSCLC
  TGI: 30 µM
M14 melanoma
  TGI: > 58 µM
M19-MEL melanoma
  TGI: 16.7 µM
MALME-3M melanoma
  TGI: 35.9 µM
MCF7 breast
  TGI: 33.3 µM
MDA-MB-231 breast
  TGI: 64.7 µM
MDA-MB-435
  TGI: 16.3 µM
MDA-N
  TGI: 34.6 µM
MOLT-4 leukemia
  TGI: 51.5 µM
NCI-H226 lung
  TGI: > 77.5 µM
NCI-H23 lung
  TGI: 52.3 µM
NCI-H460 lung
  TGI: > 100 µM
NCI-H522 lung
  TGI: > 100 µM
NCI/ADR-RES ovarian
  TGI: > 100 µM
OVCAR-3 ovarian
  TGI: 58.5 µM
OVCAR-4 ovarian
  TGI: 30 µM
OVCAR-5 ovarian
  TGI: > 100 µM
OVCAR-8 ovarian
  TGI: > 83.9 µM
PC-3 prostate
  TGI: > 100 µM
RPMI-8226 leukemia
  TGI: 58.2 µM
RXF 393 renal
  TGI: 62.7 µM
RXF-631 renal
  TGI: 92.1 µM
SF-268 CNS
  TGI: > 100 µM
SF-295 CNS
  TGI: > 100 µM
SF-539 CNS
  TGI: 55.4 µM
SK-MEL-2 melanoma
  TGI: > 86.3 µM
SK-MEL-28 melanoma
  TGI: > 80.6 µM
SK-MEL-5 melanoma
  TGI: 30.9 µM
SK-OV-3 ovarian
  TGI: > 100 µM
SN12C renal
  TGI: 58.1 µM
SNB-19 CNS
  TGI: > 100 µM
SNB-75 CNS
  TGI: 68.2 µM
SNB-78 CNS
  TGI: > 100 µM
SR leukemia
  TGI: > 100 µM
SW-620 colon
  TGI: > 64.4 µM
T-47D breast
  TGI: > 100 µM
TK-10 renal
  TGI: > 100 µM
U251 CNS
  TGI: > 70.8 µM
UACC-257 melanoma
  TGI: 44.8 µM
UACC-62 melanoma
  TGI: 44.7 µM
UO-31 renal
  TGI: 60.1 µM
XF 498 CNS
  TGI: 37.3 µM
